From US20260115190A1, “DISPERSIONS OF ETRUMADENANT” (Arcus Biosciences, Inc., priority 2022, published 2026)

Columns and labels:
A2BR = biological target: T1, A2BR (Homo sapiens, UniProt P29275); conditions: antagonist; has been reported; cited from earlier work
T1 sequence (P29275 1-332): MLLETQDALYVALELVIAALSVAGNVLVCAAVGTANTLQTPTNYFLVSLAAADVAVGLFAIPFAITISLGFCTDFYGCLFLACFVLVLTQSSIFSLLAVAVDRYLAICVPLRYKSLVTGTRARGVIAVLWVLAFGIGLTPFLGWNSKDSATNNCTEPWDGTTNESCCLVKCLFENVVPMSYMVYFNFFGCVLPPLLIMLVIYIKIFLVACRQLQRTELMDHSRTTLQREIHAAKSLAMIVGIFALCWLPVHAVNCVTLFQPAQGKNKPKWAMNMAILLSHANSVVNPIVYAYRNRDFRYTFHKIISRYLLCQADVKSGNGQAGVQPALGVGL

A2AR = A2AR (Homo sapiens, UniProt P29274); conditions: antagonist; has been reported; cited from earlier work
Sequence of A2AR (P29274 whole entry): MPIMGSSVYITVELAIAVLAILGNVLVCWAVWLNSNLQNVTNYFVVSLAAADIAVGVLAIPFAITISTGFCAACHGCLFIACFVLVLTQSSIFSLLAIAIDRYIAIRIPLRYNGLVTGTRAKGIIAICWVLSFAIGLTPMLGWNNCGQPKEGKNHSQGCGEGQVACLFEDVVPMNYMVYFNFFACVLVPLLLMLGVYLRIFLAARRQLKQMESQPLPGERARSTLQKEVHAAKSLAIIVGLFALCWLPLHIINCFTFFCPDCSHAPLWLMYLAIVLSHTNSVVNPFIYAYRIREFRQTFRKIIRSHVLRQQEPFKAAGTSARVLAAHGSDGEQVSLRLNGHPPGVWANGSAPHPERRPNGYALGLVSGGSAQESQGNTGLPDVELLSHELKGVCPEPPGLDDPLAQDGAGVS

[1] = Phase 1 relative bioavailability (capsule v. tablet) and food effect study; format: in vivo, human
From the text: This example describes a Phase 1 study to compare the single-dose PK of an etrumadenant tablet versus an etrumadenant capsule, in healthy adult participants (19-55 years of age), and to evaluate the effect of food on the single-dose PK of etrumadenant tablet, in healthy adult participants.
The study was an open-label, randomized, 3-treatment, 3 period crossover study to evaluate the relative bioavailability (BA) of etrumadenant tablet and capsule formulations and the effect of food on the tablet formulation. On Day 1 of each period, a single dose of etrumadenant was administered in a 3-period crossover fashion. Participants (n=24) received etrumadenant capsules under fasting (Treatment A) conditions and etrumadenant tablets under fasting (Treatment B) and fed (high-fat meal; Treatment C) conditions. PK samples for etrumadenant and its metabolites were taken predose and up to 120 hours post dose. There was a washout of at least 7 days between the etrumadenant doses. All participants who received at least one dose of etrumadenant (including participants who terminate the study early) were asked to return to the Clinical Research Unit (CRU) 14 (+2) days after the last dose for follow-up procedures, and to determine if any adverse event (AE) has occurred since the last study visit.
Study treatments are described as follows. […]
Additional PK parameters were calculated if deemed appropriate. […]

[2] = biological target: T2, breast cancer resistance protein (BCRP) (Homo sapiens, UniProt Q9UNQ0); experiment: In vitro transporter substrate data (BCRP); format: in vitro ADME
T2 sequence (Q9UNQ0 1-655): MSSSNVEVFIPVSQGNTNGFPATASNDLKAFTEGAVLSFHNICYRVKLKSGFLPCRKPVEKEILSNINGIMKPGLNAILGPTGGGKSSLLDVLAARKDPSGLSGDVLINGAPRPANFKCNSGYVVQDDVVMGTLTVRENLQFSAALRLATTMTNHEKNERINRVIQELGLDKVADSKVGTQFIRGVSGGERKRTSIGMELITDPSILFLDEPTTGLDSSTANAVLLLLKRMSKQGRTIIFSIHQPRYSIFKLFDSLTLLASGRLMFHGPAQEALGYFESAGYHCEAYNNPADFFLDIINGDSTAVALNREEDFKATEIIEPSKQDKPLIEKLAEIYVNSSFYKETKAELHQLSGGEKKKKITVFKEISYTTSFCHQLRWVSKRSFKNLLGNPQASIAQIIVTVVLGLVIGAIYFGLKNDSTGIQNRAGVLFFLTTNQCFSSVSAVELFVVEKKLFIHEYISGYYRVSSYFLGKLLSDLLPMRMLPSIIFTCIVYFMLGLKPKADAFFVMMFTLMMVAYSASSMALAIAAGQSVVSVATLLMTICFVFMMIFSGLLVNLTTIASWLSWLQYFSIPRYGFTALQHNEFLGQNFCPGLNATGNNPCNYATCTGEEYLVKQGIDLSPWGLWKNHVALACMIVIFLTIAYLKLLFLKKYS

[3] = Thermal analysis by MDSC (Tg); format: physicochemical; conditions: amorphous etrumadenant made by melt quenching; one experiment
Experimental: Thermal Properties. Thermal properties were measured using a TA Instruments Discovery DSC2500 DSC equipped with a TA instruments Refrigerated Cooling System 90 operating in modulated mode. Briefly, bulk drug substance was analyzed by standard DSC with a heating rate of 10° C. per minute ramping up to 220° C. Amorphous etrumadenant was created from the starting drug substance by rapidly melt quenching using liquid N2 and then analyzed by modulated DSC (MDSC). Events monitored include the glass transition temperature (Tg), cold crystallization (Tc), defined as a crystallization event at a temperature lower than the melt temperature, and melting temperature (Tm). In one experiment, the thermal properties were as follows: Tg=69° C.; Tc=no crystallization up to 220° C.; Tm=192° C. Minor lot-to-lot variation may occur.

Question: Which “potency on A2BR” value (A2BR) does the source give for `Cc1c(C#N)cccc1-c1cc(-c2cn(Cc3cccc(C(C)(C)O)n3)nn2)nc(N)n1` [Etrumadenant, 3-[2-amino-6-(1-{[6-(2-hydroxypropan-2-yl)pyridine-2-yl]methyl}-1H-1,2,3-triazol-4-yl)pyrimidin-4-yl]-2-methylbenzonitrile] here?
Answer: The value was “less than 10 nM”.

Question: What about the “potency on A2AR” value (A2AR) of the same compound?
Answer: The value was “less than 10 nM”.

Question: What about the “Cmax, AUC and Tmax in capsules and tablets” value ([1]; 150 mg, fasting) of the same compound?
Answer: The value was “statistically equivalent”.

Question: What about the “effect of fed conditions on overall exposure (AUClast and AUCINF) compared to fasting condition” value ([1]; tablet 150 mg) of the same compound?
Answer: Its value is “no effect”.

Question: What about the “substrate of breast cancer resistance protein (BCRP)” value [2] of the same compound?
Answer: Its value is “substrate”.

Question: What about the “glass transition temperature (Tg)” value [3] of the same compound?
Answer: The value was 69 °C.
